Reference: ChEMBL document CHEMBL6134909 (Eur J Med Chem, 2025)

Experiments:
[1] = tested on: Influenza A virus; assay: Anti-viral activity against Influenza A virus H7N1 pseudotype infected in human A549 cells assessed as inhibition of viral entry incubated for 48 hrs by Neolite Reporter Gene Assay; format: functional, organism-based; conditions: H7N1, A549, 48 h
[2] = Cytotoxicity against human A549 cells incubated for 48 hrs by CellTiter-Glo Luminescent Cell Viability Assay; format: toxicity, cell-based
[3] = tested on: Influenza A virus; assay: Anti-viral activity against wild-type Influenza A virus H7N1 pseudotype infected in human A549 cells assessed as inhibition of viral entry incubated for 48 hrs by Neolite Reporter Gene Assay; format: functional, organism-based; conditions: H7N1, A549, 48 h
[4] = Metabolic stability in human liver microsomes assessed as compound remaining at 2 to 10 uM measured after 60 mins in presence of NADPH by LC-MS/MS analysis; format: ADME, Microsome; conditions: dose 2-10 µM, read-out: Stability
[5] = Metabolic stability in BALB/c mouse liver microsomes assessed as compound remaining at 2 to 10 uM measured after 60 mins in presence of NADPH by LC-MS/MS analysis; format: ADME, Microsome; conditions: dose 2-10 µM, read-out: Stability
[6] = Metabolic stability in human liver microsomes assessed as compound remaining at 2 to 10 uM measured after 60 mins in absence of NADPH by LC-MS/MS analysis; format: ADME, Microsome; conditions: dose 2-10 µM, read-out: Stability
[7] = Metabolic stability in BALB/c mouse liver microsomes assessed as compound remaining at 2 to 10 uM measured after 60 mins in absence of NADPH by LC-MS/MS analysis; format: ADME, Microsome; conditions: dose 2-10 µM, read-out: Stability
[8] = Metabolic stability in human plasma at 2 uM measured after 60 mins by LC-MS/MS analysis; format: ADME, cell-free; conditions: 1 h
[9] = Metabolic stability in mouse plasma at 2 uM measured after 60 mins by LC-MS/MS analysis; format: ADME, cell-free; conditions: 1 h
[10] = Half life in CD1 mouse at 25 mg/kg, ip; format: ADME, organism-based; conditions: in vivo
[11] = Tmax in CD1 mouse at 25 mg/kg, ip; format: ADME, organism-based; conditions: in vivo
[12] = Cmax in CD1 mouse at 25 mg/kg, ip; format: ADME, organism-based; conditions: in vivo
[13] = AUC (infinity) in CD1 mouse at 25 mg/kg, ip; format: ADME, organism-based; conditions: in vivo
[14] = MRT (infinity) in CD1 mouse at 25 mg/kg, ip; format: ADME, organism-based; conditions: in vivo
[15] = Apparent volume of distribution in CD1 mouse at 25 mg/kg, ip; format: ADME, organism-based; conditions: in vivo
[16] = Clearance in CD1 mouse at 25 mg/kg, ip; format: ADME, organism-based; conditions: in vivo

Compound: Oc1ccc(-c2nc3ncccn3c2NC2CCCCC2)c(F)c1
- EC50 [1]: 90 nM
- CC50 at 48 h [2]: > 100000 nM
- EC50 [3]: 110 nM
- remaining at 1 h, up to 10 µM [4]: 68.9%
- remaining at 1 h, up to 10 µM [5]: 72.7%
- remaining at 1 h, up to 10 µM [6]: 115%
- remaining at 1 h, up to 10 µM [7]: 101%
- Stability [8]: Stable
- Stability [9]: Stable
- half-life [10]: 3.61 h
- Tmax [11]: 0.083 h
- Cmax [12]: 14500 ng/mL
- AUC(0-inf) [13]: 3660 ng·h/mL
- MRT inf [14]: 0.842 h
- Vz [15]: 35.639 L/kg
- CL/F [16]: 114 mL/min/kg

Compound: Fc1cc(OCc2ccc(C(F)(F)F)cc2)ccc1-c1nc2ncccn2c1NC1CCCCC1
- EC50 [1]: 470 nM
- CC50 at 48 h [2]: > 100000 nM
- remaining at 1 h, up to 10 µM [4]: 36%
- remaining at 1 h, up to 10 µM [5]: 60.5%
- remaining at 1 h, up to 10 µM [6]: 105%
- remaining at 1 h, up to 10 µM [7]: 104%
- Stability [8]: Stable
- Stability [9]: Stable
- half-life [10]: 3.82 h
- Tmax [11]: 2.67 h
- Cmax [12]: 2930 ng/mL
- AUC(0-inf) [13]: 33900 ng·h/mL
- MRT inf [14]: 6.25 h
- Vz [15]: 4.226 L/kg
- CL/F [16]: 12.8 mL/min/kg
